Experimental findings from patent US9441262B2, “MASP-2, a complement fixing enzyme, and uses for it” (Helion Biotech ApS, priority 1997, dated 2016) are described below.

The target in the assay is T1, MASP-2 (Homo sapiens, UniProt O00187).
T1 construct: applying test samples, e.g., diluted plasma or serum samples; from tissue; host or cells: plasma or serum
Put plainly: TRIFMA for MASP-2 activity of the MBL/MASP complex (C4 activation on mannan-coated wells). Format: biochemical. The procedure: MASP-2 may be estimated by its capacity to activate the complement system. When C4 is cleaved by MASP-2 an active thiol ester is exposed and C4 becomes covalently attached to nearby nucleophilic groups. A substantial part of the C4b will thus become attached to the coated plastic well and may be detected by anti-C4 antibody. A quantitative TRIFMA for MASP-2 activity was constructed by 1) coating microtitre wells with 1 μg mannan in 100 μl buffer; 2) blocking with Tween-20; 3) applying test samples, e.g., diluted plasma or serum samples; 4) applying purified complement factor C4 at 5 μg/ml; 5) incubate for one hour at 37° C.; 6) applying Eu-labelled anti-C4 antibody; 7) applying enhancement solution; and 8) reading the Eu by time resolved fluorometry. (Estimation by ELISA may be carried out similarly, e.g. by applying biotin-labelled anti-C4 in step 6; 7) apply alkaline phosphatase-labelled avidin; 8) apply substrate; and 9) read the colour intensity). Between each step the plate was incubated at room temperature and washed, except between step 7 and 8. A calibration curve can be constructed using dilutions of one selected normal plasma, arbitrarily said to contain 1 unit of MBL/MASP-2 activity per ml. The assay is carried out at conditions which preclude activation of C4 by the classical or alternative complement activation pathways.

T1 sequence (O00187 445-686 limits assumed): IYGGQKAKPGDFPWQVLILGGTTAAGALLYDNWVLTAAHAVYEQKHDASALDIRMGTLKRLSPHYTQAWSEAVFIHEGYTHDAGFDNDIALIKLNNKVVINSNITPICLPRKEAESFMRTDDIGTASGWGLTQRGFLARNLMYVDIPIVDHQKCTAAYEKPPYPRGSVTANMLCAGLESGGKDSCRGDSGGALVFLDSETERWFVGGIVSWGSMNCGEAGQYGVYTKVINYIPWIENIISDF
T1 sequence (O00187 16-444 partner limits assumed): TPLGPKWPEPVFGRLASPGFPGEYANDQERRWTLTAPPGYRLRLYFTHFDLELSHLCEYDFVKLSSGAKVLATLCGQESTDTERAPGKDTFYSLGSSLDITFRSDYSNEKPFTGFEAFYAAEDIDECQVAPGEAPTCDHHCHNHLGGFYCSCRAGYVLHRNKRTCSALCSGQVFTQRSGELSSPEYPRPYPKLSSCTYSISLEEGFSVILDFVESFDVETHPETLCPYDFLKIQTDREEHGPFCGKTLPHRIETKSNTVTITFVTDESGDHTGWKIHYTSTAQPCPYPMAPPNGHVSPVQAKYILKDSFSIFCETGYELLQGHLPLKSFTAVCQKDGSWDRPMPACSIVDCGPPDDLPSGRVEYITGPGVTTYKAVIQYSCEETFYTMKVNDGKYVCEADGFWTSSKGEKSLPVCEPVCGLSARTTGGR
T1 sequence (P11226 21-248 partner): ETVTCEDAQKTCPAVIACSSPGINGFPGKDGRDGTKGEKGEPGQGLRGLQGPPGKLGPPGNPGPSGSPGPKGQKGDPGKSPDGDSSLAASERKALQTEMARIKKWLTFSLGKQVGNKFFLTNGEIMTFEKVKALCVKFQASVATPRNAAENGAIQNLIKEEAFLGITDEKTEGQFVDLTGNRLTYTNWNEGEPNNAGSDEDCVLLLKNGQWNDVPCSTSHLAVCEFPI

In the case of `O=S(=O)(F)Cc1ccccc1` [PMSF], the “effectiveness as enzyme inhibitor in the TRIFMA for MASP-2 activity” value is reported as “proved effective”.
On the same count and under the same terms, the same measure for `Cl.NCCc1ccc(S(=O)(=O)F)cc1` [Pefabloc]: “inhibitors of MASP-2 activity”.
For `N=C(N)c1ccccc1` [benzamidine], the “effectiveness as enzyme inhibitor in the TRIFMA for MASP-2 activity” value is recorded as “proved effective”. Further, the “activation of C4” value (purified C4 at 5 μg/ml, one hour at 37° C.) is “completely inhibited”.
